“Also recorded” adds a separate entry of the source.
Key:
IκB-α (Ser32) = assay: Western blot of LPS-induced IκB-α phosphorylation in L6-GLUT4myc myotubes; assay type: cell-based, rat; conditions: 500 nM CDDO-EA 1 hr then 100 ng/ml LPS 1 hr
Source text: To examine the anti-inflammatory properties of CDDO-EA in skeletal muscle cells, CDDO-EA was examined for its effect on nuclear factor-kappa B (NF-κB) activity in L6-GLUT4myc muscle cells, in the context of LPS-mediated inflammatory responses in L6-GLUT4myc muscle cells. All experiments were independently repeated one to four times and done in duplicate or triplicate, and data were statistically analyzed by One-Way ANOVA or unpaired t-test, two tailed.
Cells were studied with vehicle alone [0.125% dimethyl sulfoxide (DMSO)] and LPS with and without CDDO-EA. […]
Western blotting and subcellular fractionation: L6-GLUT4myc myoblasts (4×10^4 cells/ml, 2 ml/well) were seeded onto 6-well dishes and differentiated with differentiation medium for 7 days. […] Protein concentrations were determined using the Pierce BCA Protein Assay (Thermo Fisher Scientific), and equal amounts of protein were separated by electrophoresis and subsequently transferred to nitrocellulose membranes. Membranes were analyzed using the following antibodies from Cell Signaling Technology: phosphorylated NF-κB (Ser536) (93 H1, cat #3033,1:1000), phosphorylated IKB-α (Ser32) (14D4, cat #2859,1:1000), IKB-α (44D4, cat #4812, 1:1000), phosphorylated p38 (Thr180/Tyr182) (cat #9211, 1:1000), p38 (cat #9212, 1:1000). […] Bands were quantitated using ImageQuant (GE Healthcare). […]

THP-1 macrophages = assay: Bio-Plex Pro human 17-plex cytokine/chemokine panel in THP-1 macrophages exposed to CDDO-EA and LPS; assay type: cell-based
Description: THP-1 monocytes were plated in 24-well plate at 15×10^4 cells/0.5 ml/well in growth medium plus 100 ng/ml PMA into each well and cultured at 37° C. with 5% CO2 incubator for 48 h for differentiation to macrophages. […] Supernatants were collected and stored at −80° C. until analysis. Cytokines and chemokines were measured and quantified using a Bio-Plex Pro human cytokines group I, 17-plex ELISA Kit (Bio-Rad) according to the manufacturer's instructions.

[1] = OGTT and fasting glucose at week 6 with pair-fed group; assay type: in vivo, C57BL/6J mice
Description: FIG. 25—OGTT Area Under the Curve. Oral GTT performed at week 6 of experimental feeding, and mice were dosed on lean mass (2 g/kg lean mass). C57BL/6J mice were fed a HFD with or without incorporation of CDDO-EA (diet containing 0.04% CDDO-EA) or LFD or HFD pair-fed for 6 weeks (n=5). Data are represented as mean±SEM (One-way ANOVA).
Fasting glucose levels were measured at day 42 of experimental feeding. C57BL/6J mice were fed a HFD with or without incorporation of CDDO-EA (diet containing 0.04% CDDO-EA) or a LFD or were HFD pair-fed for 6 weeks (n=5). Data are represented as mean±SEM (One-way ANOVA).
To determine the answer to this question, a pair-fed/weight-matched group was included in the study. OGTT was performed at end of the 6-week study.

TNF-α = assay: RT-PCR of PA-induced TNF-α gene expression in L6-GLUT4myc myotubes; assay type: cell-based, rat; conditions: CDDO-EA 500 nM 1 h then PA 400 μM 6 h
Description: L6-GLUT4myc myotubes were pretreated with CDDO-EA (500 nM, 1 h) and treated PA (400 μM, 6 h). TNF-α and MCP-1 gene expression were measured by RT-PCR. Data are represented as +SEM *P<0.05 vs. control, ^#P<0.05 vs. control. * P<0.05 vs. LPS, $P<0.05 vs. PA. (One-Way ANOVA).

[2] = 500 nM CDDO-EA for 1 hr then 100 ng/ml LPS for 6 hr

**Q.** With `CCNC(=O)[C@]12CCC(C)(C)C[C@H]1C1C(=O)C=C3[C@@]4(C)C=C(C#N)C(=O)C(C)(C)[C@@H]4CC[C@@]3(C)[C@]1(C)CC2` (stereo partly drawn) [CDDO-EA, (4aS,6aR,6bS,8aR,12aS,14bS)-11-cyano-N-ethyl-2,2,6a,6b,9,9,12a-heptamethyl-10,14-dioxo-1,3,4,5,6,6a,6b, 7,8,8a,9,10,12a, 14,14a, 14b-hexadecahydropicene-4a (2H)-carboxamide] as the compound, how does the “LPS-induced IκB-α phosphorylation” value (IκB-α (Ser32)) read?
**A.** decreased LPS-induced NF-κB and nuclear factor of kappa light polypeptide gene enhancer in B-cells inhibitor-alpha (IκB) phosphorylation; also recorded: inhibited the LPS-induced phosphorylation of IκB-α; also recorded: inhibits lipopolysaccharide (LPS)-induced NF-κB and Inhibitory kappa B alpha (IκB-α) phosphorylation

**Q.** What about the “LPS-induced IL-1β, IL-6 and MCP-1 production” value (THP-1 macrophages; 500 nM CDDO-EA 1 hour then 100 ng/ml LPS 6 hours) of the same compound?
**A.** primarily inhibited LPS-induced IL-1B, IL-6 and MCP-1 production; also recorded: blocks LPS induced IL-1β, IL-6, and MCP-1 secretion

**Q.** And the IFN-γ (THP-1 macrophages; 500 nM CDDO-EA alone, no LPS)?
**A.** 24.78 ± 20.55 pg/mL

**Q.** What about the IL-1β (THP-1 macrophages; 500 nM CDDO-EA alone, no LPS) of the same compound?
**A.** 2.19 ± 1.49 pg/mL

**Q.** What about the IL-4 (THP-1 macrophages; 500 nM CDDO-EA alone, no LPS) of the same compound?
**A.** 0.21 ± 0.12 pg/mL

**Q.** What about the IL-6 (THP-1 macrophages; 500 nM CDDO-EA alone, no LPS) of the same compound?
**A.** 0.12 ± 0.02 pg/mL

**Q.** What about the IL-8 (THP-1 macrophages; 500 nM CDDO-EA alone, no LPS) of the same compound?
**A.** 6339.67 ± 1535.18 pg/mL

**Q.** What about the IL-17 (THP-1 macrophages; 500 nM CDDO-EA alone, no LPS) of the same compound?
**A.** 22.72 ± 9.47 pg/mL

**Q.** What about the MCP-1 (THP-1 macrophages; 500 nM CDDO-EA alone, no LPS) of the same compound?
**A.** 2.11 ± 1.35 pg/mL

**Q.** And the MIP-1β (THP-1 macrophages; 500 nM CDDO-EA alone, no LPS)?
**A.** 3763.83 ± 1229.25 pg/mL

**Q.** What about the TNF-α (THP-1 macrophages; 500 nM CDDO-EA alone, no LPS) of the same compound?
**A.** 128.33 ± 38.63 pg/mL

**Q.** And the G-CSF (THP-1 macrophages; [2])?
**A.** 10.72 ± 4.71 pg/mL

**Q.** And the IFN-γ (THP-1 macrophages; [2])?
**A.** 114.38 ± 5.43 pg/mL

**Q.** What about the IL-1β (THP-1 macrophages; [2]) of the same compound?
**A.** 64.65 ± 17.12 pg/mL

**Q.** And the IL-2 (THP-1 macrophages; [2])?
**A.** 4.09 ± 1.51 pg/mL

**Q.** What about the IL-4 (THP-1 macrophages; [2]) of the same compound?
**A.** 1.55 ± 0.18 pg/mL

**Q.** What about the IL-6 (THP-1 macrophages; [2]) of the same compound?
**A.** 12.67 ± 5.50 pg/mL

**Q.** And the IL-8 (THP-1 macrophages; [2])?
**A.** 9691.33 ± 1268.42 pg/mL

**Q.** And the IL-12 (THP-1 macrophages; [2])?
**A.** 2.00 ± 1.00 pg/mL

**Q.** And the IL-17 (THP-1 macrophages; [2])?
**A.** 40.16 ± 8.13 pg/mL

**Q.** What about the MCP-1 (THP-1 macrophages; [2]) of the same compound?
**A.** 11.05 ± 1.65 pg/mL

**Q.** What about the MIP-1β (THP-1 macrophages; [2]) of the same compound?
**A.** 11212.50 ± 877.01 pg/mL

**Q.** And the TNF-α (THP-1 macrophages; [2])?
**A.** 8237.33 ± 1137.80 pg/mL

**Q.** What about the fasting glucose ([1]; day 42, HFD+CDDO-EA compared to HFD ad lib) of the same compound?
**A.** significant lowered fasting glucose levels; also recorded: lowers fasting glucose levels

**Q.** What about the fasting glucose ([1]; day 42, HFD+CDDO-EA compared to HFD pair-fed) of the same compound?
**A.** close to significant effect on fasting glucose

**Q.** What about the “glucose tolerance (OGTT Area Under the Curve)” value ([1]; week 6, HFD+CDDO-EA compared to HFD ad lib) of the same compound?
**A.** significant improvement in glucose tolerance

**Q.** What about the “glucose tolerance (OGTT Area Under the Curve)” value ([1]; week 6, HFD+CDDO-EA compared to HFD pair-fed) of the same compound?
**A.** slight improvement in glucose tolerance

**Q.** What about the “PA-induced TNF-α gene expression” value (TNF-α) of the same compound?
**A.** inhibits PA-induced NF-κB activation and MCP-1 and TNF-α gene expression; also recorded: blocks TNF-α and MCP-1 gene expression

— patent US20260207626A1, “SYNTHETIC TRITERPENOIDS AND COMPOSITIONS THEREOF IN WEIGHT MANAGEMENT, SKELETAL MUSCLE FUNCTION, AND APPETITE SUPPRESSION” (The Board of Regents of the University of Texas System, priority 2022, published 2026)
